Assay results as given in US8278313B2, “Macrocyclic spiro pyrimidine derivatives” (Abbott Laboratories, priority 2008, dated 2012).

Experiments:
histamine H4 receptor [1] = molecular target: T1, histamine H4 receptor (Homo sapiens, UniProt Q9H3N8); assay: In vitro histamine H4 potency in FLIPR (Ca2+ flux, Fluo-4) in HEK-293 cells coexpressing Gαqi5; format: cell-based; conditions: Kb values for antagonists and inverse agonists, EC50 values for partial agonists; HEK-293 cells with Gαqi5, Fluo-4
T1 construct: expressed in transfected cells
Text: There are many methods available to show the effectiveness of compounds as histamine H4 receptor ligands. Histamine H4 receptors from mammalian species have been cloned. Methods to clone, express, and assess the potency and functional activity of such cloned genes are well known to those skilled in the art of molecular biology. […] Before testing, cells are loaded with a Ca^+2 sensitive fluorescent dye, in this case Fluo-4. In the case of partial agonist or agonist ligands, addition of compound to the cells leads to the increase in intracellular Ca^+2, which is detected by FLIPR (Fluorescence Imaging Plate Reader; Molecular Devices, Sunnyvale, Calif.) technology. […] The fluorescence intensities measured before addition of the test compound are subtracted from the fluorescence intensities at later time points. Peak response values determined at each concentration of ligand are expressed as a percentage of the response obtained with the full agonist histamine. Concentration versus response data are analyzed to obtain compound potency as Kb values for antagonists and inverse agonists and as EC50 values for partial agonists.

histamine H4 receptor [2] = molecular target: T1, histamine H4 receptor; assay: [3H]-histamine competition binding assay, membranes of HEK-293 cells transiently transfected with histamine H4 receptor; conditions: Ki by Cheng-Prusoff equation; HEK-293 membranes, 25° C., 1 hour, pH 7.4; read-out: Potency (nM), displacement of 3H-histamine
Description: In this assay, membranes were prepared from HEK-293 cells transiently transfected with the pCINeo expression vector harboring the histamine H4 receptor by homogenization of the cells on ice in TE buffer (50 mM Tris-HCl buffer, pH 7.4, containing 5 mM EDTA), 1 mM benzamidine, 2 μg/ml aprotinin, […] leupeptin, and 1 μg/ml pepstatin. The homogenate was centrifuged at 40,000 g for 20 minutes at 4° C. This step was repeated, and the resulting pellet was resuspended in TE buffer. Aliquots were frozen at −70° C. until needed. On the day of assay, membranes were thawed and diluted with TE buffer. Competition radioligand binding assays were performed with increasing concentrations of test compound in the presence of [^3H]-histamine incubated at 25° C. for 1 hour in a total volume of 0.5 mL of 50 mM Tris, 5 mM EDTA, pH 7.4. All binding reactions were terminated by filtration under vacuum onto polyethylenimine (0.3%) presoaked Unifilters (PerkinElmer Life Sciences) or Whatman GF/B filters (Whatman, Clifton, N.J.), followed by three brief washes with 4 ml of ice-cold TE buffer. Bound radiolabel was determined by liquid scintillation counting. For all of the radioligand competition binding assays, IC50 values and Hill slopes were determined by Hill transformation of the data, and Ki values were determined by the Cheng-Prusoff equation.

Structure (SMILES)	Potency (nM), in vitro histamine H4 potency in FLIPR (histamine H4 receptor [1]) [nM]	Ki (histamine H4 receptor [2]) [nM]
Nc1nc(N2C[C@H]3CCCN[C@H]3C2)c2c(n1)C1(CCCCC1)CCCC2 [Example 18, 4-((4aR,7aR)-tetrahydro-1H-pyrrolo[3,4-b]pyridin-6(2H,7H,7aH)-yl)-5,6,7,8-tetrahydrospiro[cyclohepta[d]pyrimidine-9,1′-cyclohexan]-2-amine]	99	–
CN1CC[C@@H](Oc2nc(N)nc3c2CCCC32CCCC2)C1 [Example 15, (R)-4′-(1-methylpyrrolidin-3-yloxy)-6′,7′-dihydro-5′H-spiro[cyclopentane-1,8′-quinazolin]-2′-amine]	20	–
CN(C)CCOc1nc(N)nc2c1CCCC21CCCC1 [Example 14, 4′-(2-(dimethylamino)ethoxy)-6′,7′-dihydro-5′H-spiro[cyclopentane-1,8′-quinazolin]-2′-amine]	7.8	–
Nc1nc(N2CC[C@@H](N)C2)c2c(n1)C1(CCCC2)Cc2ccccc2C1 [Example 20, (R)-4-(3-aminopyrrolidin-1-yl)-1′,3′,5,6,7,8-hexahydrospiro[cyclohepta[d]pyrimidine-9,2′-inden]-2-amine]	499	–
Nc1nc(N2CCNCC2)c2c(n1)C1(CCCC2)Cc2ccccc2C1 [Example 19, 4-(piperazin-1-yl)-1′,3′,5,6,7,8-hexahydrospiro[cyclohepta[d]pyrimidine-9,2′-inden]-2-amine]	26915	–
CN1CCC(Nc2nc(N)nc3c2CCCC32CCCC2)CC1 [Example 10, N4′-(1-methylpiperidin-4-yl)-6′,7′-dihydro-5′H-spiro[cyclopentane-1,8′-quinazoline]-2′,4′-diamine]	22	–
COC(=O)C1(N)CCN(c2nc(N)nc3c2CCCC32CCCC2)CC1 [Example 11, Methyl 4-amino-1-(2′-amino-6′,7′-dihydro-5′H-spiro[cyclopentane-1,8′-quinazoline]-4′-yl)piperidine-4-carboxylate]	12624	–
Nc1nc(N2CC[C@H]3CNC[C@H]32)c2c(n1)C1(CCCC1)CCC2 [Example 7, 4′-((3aS,6aS)-hexahydropyrrolo[3,4-b]pyrrol-1(2H)-yl)-6′,7′-dihydro-5′H-spiro[cyclopentane-1,8′-quinazolin]-2′-amine]	1027	–
CNC1CN(c2nc(N)nc3c2CCCC32CCCC2)C1 [Example 3, 4′-(3-(methylamino)azetidin-1-yl)-6′,7′-dihydro-5′H-spiro[cyclopentane-1,8′-quinazolin]-2′-amine]	4.6	1.4
CN[C@@H]1CCN(c2nc(N)nc3c2CCCC32CCCC2)C1 [Example 1, (R)-4′-(3-(methylamino)pyrrolidin-1-yl)-6′,7′-dihydro-5′H-spiro[cyclopentane-1,8′-quinazolin]-2′-amine]	2.9	2.6
Nc1nc(N2CC[C@@H]3CNC[C@@H]32)c2c(n1)C1(CCCC1)CCC2 [Example 6, 4′-((3aR,6aR)-hexahydropyrrolo[3,4-b]pyrrol-1(2H)-yl)-6′,7′-dihydro-5′H-spiro[cyclopentane-1,8′-quinazolin]-2′-amine]	1097	–
Nc1nc(N2C[C@H]3CCCN[C@H]3C2)c2c(n1)C1(CCCC1)CCC2 [Example 9, 4′-((4aR,7aR)-tetrahydro-1H-pyrrolo[3,4-b]pyridin-6(2H,7H,7aH)-yl)-6′,7′-dihydro-5′H-spiro[cyclopentane-1,8′-quinazolin]-2′-amine]	8.5	3.4

Second part, the compound after the results:

Potency (nM), in vitro histamine H4 potency in FLIPR (histamine H4 receptor [1]) [nM]	Ki (histamine H4 receptor [2]) [nM]	Structure (SMILES)
9.8	2.8	Nc1nc(N2CCCNCC2)c2c(n1)C1(CCCC1)CCC2 [Example 8, 4′-(1,4-diazepan-1-yl)-6′,7′-dihydro-5′H-spiro[cyclopentane-1,8′-quinazolin]-2′-amine]
2.8	1.1	Nc1nc(N2CCNCC2)c2c(n1)C1(CCCC1)CCC2 [Example 2, 4′-(piperazin-1-yl)-6′,7′-dihydro-5′H-spiro[cyclopentane-1,8′-quinazolin]-2′-amine]
68851	–	Nc1nc(N2CC(N)C2)c2c(n1)C1(CCCC1)CCC2 [Example 13, 4′-(3-aminoazetidin-1-yl)-6′,7′-dihydro-5′H-spiro[cyclopentane-1,8′-quinazolin]-2′-amine]
21251	–	Nc1nc(N2CCC(N)(C(=O)O)CC2)c2c(n1)C1(CCCC1)CCC2 [Example 12, 4-amino-1-(2′-amino-6′,7′-dihydro-5′H-spiro[cyclopentane-1,8′-quinazoline]-4′-yl)piperidine-4-carboxylic Acid]
2.7	4.6	Nc1nc(N2CC[C@@H](N)C2)c2c(n1)C1(CCCC1)CCC2 [Example 4, (R)-4′-(3-aminopyrrolidin-1-yl)-6′,7′-dihydro-5′H-spiro[cyclopentane-1,8′-quinazolin]-2′-amine]
48	9.3	Nc1nc(N2CCNCC2)c2c(n1)C1(CCCCC1)CCCC2 [Example 16, 4-(piperazin-1-yl)-5,6,7,8-tetrahydrospiro[cyclohepta[d]pyrimidine-9,1′-cyclohexan]-2-amine]
53	–	Nc1nc(N2CC[C@H](N)C2)c2c(n1)C1(CCCC1)CCC2 [Example 5, (S)-4′-(3-aminopyrrolidin-1-yl)-6′,7′-dihydro-5′H-spiro[cyclopentane-1,8′-quinazolin]-2′-amine]
47	18	Nc1nc(N2CC[C@@H](N)C2)c2c(n1)C1(CCCCC1)CCCC2 [Example 17, (R)-4-(3-aminopyrrolidin-1-yl)-5,6,7,8-tetrahydrospiro[cyclohepta[d]pyrimidine-9,1′-cyclohexan]-2-amine]
